# Experimental data taken from patent US8497278B2, “Imidazo[1,2-a]pyridine compounds” (priority 2008, dated 2013).
# Marks after values point to notes of the source that are not given here.
# How the values were obtained:
# [1] = system: 129SVEV mice; experiment: Stress-Induced Hyperthermia (SIH) test; type: in vivo; conditions: mouse, 60 min before test
# Experimental: Stress-Induced Hyperthermia (SIH) protocol: The stress-induced hyperthermia (SIH) test is based on the principle that animal's have a natural hyperthermic response to stress. The test involves taking two measures of rectal temperature in the same animal within a 10 minute interval. The two sequential rectal temperature measurements reveal the animal's basal temperature (T1) and 10 minutes later, an enhanced body temperature (T2) due to the stress of the first rectal temperature. The difference T2-T1 (delta T) is the SIH response. When anxiolytic drugs are administered prior to recording temperature, they reduce the stress response.
# Adult male 129SVEV mice (6 weeks old) from Taconic Laboratories (Germantown, N.Y.) were used in these studies. Upon receipt, mice were assigned unique identification numbers (tail marked) and were group housed in OptiMICE ventilated racks. All animals remained group housed during the remainder of the study unless indicated otherwise. All mice were acclimated to the colony room for at least two weeks prior to testing and were subsequently tested at 8 weeks of age. During the period of acclimation, mice were examined on a regular basis, handled, and weighed to assure adequate healtH, D and suitability. Mice were maintained on a 12/12 light/dark cycle with the light on at 7:00 a.m. The room temperature was maintained between 20 and 23° C. with a relative humidity maintained between 30% and 70%. Chow and water were provided ad libitum for the duration of the study. Animals were not disturbed between test days.
# On the day prior to testing, the mice were brought to the experimental room one hour before scheduled lights out and singly housed overnight with food and water ad libitum. On the morning of the experiment, mice were orally dosed via gavage with vehicle, CDP (10 mg/kg) or compounds of the present invention (3, 10 or 30 mg/kg) and placed back in the cages. One hour after oral gavage, each animal was removed from the holding cage and held in a supine position and rectal temperature was measured. The rectal probe was attached to a PhysiTemp digital thermometer (Fisher Scientific) which provides temperature readings at 0.1° C. accuracy. The probe remained inside the animal for approximately 5 seconds or until body temperature reached stability. This temperature was recorded as the baseline rectal temperature (T1). The animal was immediately placed back to the holding cage and after a 10-min interval the 2nd rectal temperature (T2) was taken using the same procedure as in measuring T1. Before each insertion, the rectal probe was cleaned with an alcohol pad and lubricated with sterile K-Y jelly.
# Chlordiazepoxide (10 mg/kg) was used as the positive control. Compounds of the present invention, vehicle (45% hydroxypropyl beta-cyclodextrin) and chlordiazepoxide were administered orally to all groups (n=10 […] per group) 60 minutes prior to behavioral testing. All data were analyzed using an analysis of variance (ANOVA) followed by Fisher's PLSD post hoc test. An effect was considered significance if p<0.05. Statistical outliers above or below 2 standard deviations from the mean in any of the temperature measures were removed from the final analysis.
# [2] = system: rhesus monkeys; experiment: Rhesus monkey conflict test; type: in vivo; conditions: cumulative dosing
# From the text: Conflict protocol: The conflict procedure is a well established operant conditioning approach to evaluate anxiolytic-like effects of test compounds. In this procedure, positively-reinforced behavior is suppressed by response-contingent administration of a noxious stimulus (i.e., mild electric shock). Compounds with anxiolytic effects in humans (e.g., benzodiazepines) characteristically increase rates of responding that are suppressed by shock and are referred to as anti-conflict or anxiolytic-like effects. […] In addition to anxiolytic-like effects, conflict procedures also provide an assessment of the ability of the animal to perform operant lever pressing. This is typically assessed by including lever pressing in the absence of the noxious stimulus. Most anxiolytic compounds will decrease rates of responding in the absence of shock at doses higher than those that induce anxiolytic-like effects. The effects contributing to anxiolytic-induced decreases in non-suppressed responding are not well understood, but likely consist of a combination of motor co-ordination deficits and sedative effects.
# Adult rhesus monkeys were used in these studies (n=1-4). Weights of the monkeys ranged from 6.2 to 10.5 kg. The animals had been previously trained using the conflict procedure. Animals were maintained at 85-95% of their free-feeding weights by manipulation of food intake. Monkeys were individually housed with water available ad libitum, and maintained on a 12 hour lights-on/12 hour lights-off cycle (lights on at 0600 a.m.). Monkeys received Harlan Teklad diet (15% Primate Diet) as well as supplemental feeding (fruits, vegetables, and commercially available primate treats) daily. They were also given toys and video enrichment when not in an experimental session. Each animal was prepared prior to the study with a chronic indwelling venous catheter for drug delivery. A polyvinyl chloride catheter was implanted in a jugular, femoral or brachial vein under isoflurane anesthesia and aseptic conditions. The proximal end of the catheter terminated above the right atrium, and the distal end was passed subcutaneously to exit in the midscapular region. Experimental sessions began 5-7 days following surgery. Catheters had been implanted approximately 3 months to 1 year prior to the initiation of the study. During experimental sessions, monkeys were seated in primate chairs that were placed in ventilated sound-attenuating chambers. A single response lever was mounted on the wall of the chamber in front of the monkey. Each press of a lever produced an audible click and was recorded as a response via electromechanical equipment, a computer interface, and PC with specialized software. Food pellets could be delivered into a tray located next to the lever. Mild electric shock could be delivered to the bottom of the feet via brass electrodes that were fitted to shoes. Red and green lights mounted above the levers could be illuminated to serve as visual stimuli.
# Monkeys were trained under a multiple schedule of food reinforcement adapted from Spealman (1979). A daily session consisted of 4 cycles, each preceded by a 10-min time out period in which all lights in the chamber were off and responding had no programmed consequences. Each cycle consisted of two components, component 1 and 2. Component 1 was signaled by red stimulus lights and consisted of an 18-response schedule (FR18) of food pellet delivery (i.e., the animal receives a food pellet following 18 responses). Component 2, signaled by green stimulus lights, followed immediately and consisted of the FR18 schedule of food delivery combined with a FR20 schedule of foot shock delivery (1.5-3.0 mA, adjusted for each monkey based on individual performance, 0.25 sec duration). Delivery of a food pellet (FR18 schedule) was followed by a 10 sec time out in which responses had no programmed consequences. […]
Structure (SMILES),Change in Temperature (T2 − T1) Mean ± S.E.M. ([1]; 3 mg/kg PO),Change in Temperature (T2 − T1) Mean ± S.E.M. ([1]; 10 mg/kg PO),Change in Temperature (T2 − T1) Mean ± S.E.M. ([1]; 30 mg/kg PO),Non-Suppressed Response Rates Mean ± S.E.M. ([2]; 0.3 mg/kg IV),Suppressed Response Rates Mean ± S.E.M. ([2]; 0.3 mg/kg IV),Non-Suppressed Response Rates Mean ± S.E.M. ([2]; 1 mg/kg IV),Suppressed Response Rates Mean ± S.E.M. ([2]; 1 mg/kg IV),Non-Suppressed Response Rates Mean ± S.E.M. ([2]; 1.8 mg/kg IV),Suppressed Response Rates Mean ± S.E.M. ([2]; 1.8 mg/kg IV),Non-Suppressed Response Rates Mean ± S.E.M. ([2]; 3 mg/kg IV),Suppressed Response Rates Mean ± S.E.M. ([2]; 3 mg/kg IV),Non-Suppressed Response Rates Mean ± S.E.M. ([2]; 5.6 mg/kg IV),Suppressed Response Rates Mean ± S.E.M. ([2]; 5.6 mg/kg IV),Non-Suppressed Response Rates Mean ± S.E.M. ([2]; 0.1 mg/kg IV),Suppressed Response Rates Mean ± S.E.M. ([2]; 0.1 mg/kg IV)
"Cn1ncnc1Cc1c(-c2ccc(F)cc2)nc2ccc(F)cn12 [Compound 200, 6-fluoro-2-(4-fluorophenyl)-3-((1-methyl-1H-1,2,4-triazol-5-yl)methyl)imidazo[1,2-a]pyridine]",−0.13 ± 0.11 °C,−0.50 ± 0.15 °C,−0.66 ± 0.13 °C,3.2 Responses/Second,0.02 Responses/Second,2.9 Responses/Second,0.02 Responses/Second,2.4 Responses/Second,1.4* Responses/Second,3.1 Responses/Second,1.2* Responses/Second,3.3 Responses/Second,1.9* Responses/Second,,
"CNC(=O)c1nccn1Cc1c(-c2ccc(Cl)cc2)nc2ccccn12 [Compound 77, 1-((2-(4-chlorophenyl)H-imidazo[1,2-a]pyridin-3-yl)methyl)-N-methyl-1H-imidazole-2-carboxamide]",0.37 ± 0.15 °C,0.55 ± 0.11 °C,0.55 ± 0.12 °C,,,,,,,,,,,,
"NC(=O)c1ncn(Cc2c(-c3ccc(Cl)cc3)nc3ccccn23)n1 [Compound 72, 1-((2-(4-chlorophenyl)imidazo[1,2-a]pyridin-3-yl)methyl)-1H-1,2,4-triazole-3-carboxamide]",0.21 ± 0.11 °C,0.32 ± 0.05 °C,0.44 ± 0.10 °C,,,,,,,,,,,,
"Clc1ccc(-c2nc3cccnn3c2Cn2cncn2)cc1 [Compound 32, 3-((1H-1,2,4-triazol-1-yl)methyl)-2-(4-chlorophenyl)imidazo[1,2-b]pyridazine]",0.26 ± 0.04 °C,0.28 ± 0.10 °C,0.37 ± 0.06 °C,2.58 ± 0.44 Responses/Second,0.24 ± 0.17 Responses/Second,1.82 ± 0.67 Responses/Second,1.1 ± 0.67 Responses/Second,,,1.77 ± 0.64 Responses/Second,1.19 ± 0.36 Responses/Second,,,2.50 ± 0.29 Responses/Second,0.03 ± 0.01 Responses/Second
"Cc1ccn(Cc2c(-c3ccc(Cl)cc3)nc3ccccn23)c(=O)n1 [Compound 105, 1-((2-(4-chlorophenyl)imidazo[1,2-a]pyridin-3-yl)methyl)-4-methylpyrimidin-2(1H)-one]",,,,2.68 ± 0.39 Responses/Second,0.47 ± 0.44 Responses/Second,2.78 ± 0.36 Responses/Second,0.79 ± 0.45 Responses/Second,,,1.02 ± 0.57 Responses/Second,0.46 ± 0.32 Responses/Second,,,2.68 ± 0.37 Responses/Second,0.02 ± 0.01 Responses/Second
"Clc1ccc(-c2nc3ccccn3c2Cc2ncn[nH]2)cc1 [Compound 211, 3-((1H-1,2,4-triazol-5-yl)methyl)-2-(4-chlorophenyl)imidazo[1,2-a]pyridine]",0.37 ± 0.08 °C,0.33 ± 0.09 °C,0.37 ± 0.09 °C,,,,,,,,,,,,
